Assays:
[1] = Comparative pharmacokinetic investigations (bioavailability, oxalate formation); assay type: in vivo; details: comparative pharmacokinetic investigations with DCA and Derivative 4
blood lactate = test: Blood lactate lowering in fasted rats, single orogastric dose, monitored over 24 hours; assay type: in vivo; details: for duration of action (blood lactate decrease): single orogastric dose, sodium DCA 100 mg/kg or derivative equivalent to 100 mg/kg DCA
Excerpt: (§1) Results are expressed as (1) maximum percent decrease in glucose or lactace, relative to control, (2) the time at which the maximum changes occurred, and (3) the duration of action of the drug.

serum glucose = test: Serum glucose lowering in fasted rats, single orogastric dose, monitored over 24 hours; assay type: in vivo; details: sodium DCA 100 mg/kg or derivative equivalent to 100 mg/kg DCA
Excerpt: as §1

[2] = one human patient, about four months; resolved when treatment stopped; cited from earlier work
[3] = cited from earlier work
lactate oxidation = details: animal tissues; cited from earlier work
lactic acid levels = details: patients with lactic acidosis; cited from earlier work
blood cholesterol = details: patients with various forms of hyperlipidemia; cited from earlier work
[4] = chronic administration, doses exceeding those used clinically; cited from earlier work
[5] = tested on: hepatic glucose production; details: cited from earlier work
[6] = tested on: circulating triglyceride and cholesterol; details: obese and diabetic animals; cited from earlier work
blood glucose = details: patients with diabetes mellitus; cited from earlier work
peripheral tissues = details: cited from earlier work

C[n+]1cccc(C(=O)OC2C(OC(=O)c3ccc[n+](C)c3)C(OC(=O)c3ccc[n+](C)c3)C(OC(=O)c3ccc[n+](C)c3)C(OC(=O)c3ccc[n+](C)c3)C2OC(=O)c2ccc[n+](C)c2)c1 (stereo not shown) [Derivative 4, inositol hexa(N-methylnicotinate-dichloroacetate)]
formation of oxalate [1]: minimal and unlikely to be toxic
duration of action (blood lactate decrease) (blood lactate): > 24 h
duration of action (serum glucose decrease) (serum glucose): > 24 h

O=C(OC1OC(C(=O)O)C(OC(=O)C(Cl)Cl)C(OC(=O)C(Cl)Cl)C1OC(=O)C(Cl)Cl)C(Cl)Cl (stereo not shown) [Derivative 1, potassium tetra(dichloroacetyl)glucuronate]
duration of action (blood lactate decrease) (blood lactate): > 24 h
duration of action (serum glucose decrease) (serum glucose): > 24 h

O=C(OC1C(O)C(OP(=O)(O)O)C(OC(=O)C(Cl)Cl)C(OC(=O)C(Cl)Cl)C1OC(=O)C(Cl)Cl)C(Cl)Cl (stereo not shown) [Derivative 2, inositol monophosphatetetradichloroacetate]
duration of action (blood lactate decrease) (blood lactate): > 24 h
duration of action (serum glucose decrease) (serum glucose): 24 h

O=C(O)C(Cl)Cl [DCA, dichloroacetic acid]
polyneuropathy [2]: mild polyneuropathy that resolved when treatment stopped
in vivo oxidation [3]: oxidize in vivo to glyoxylate and subsequently to oxalate
lactate oxidation (lactate oxidation): stimulates lactate oxidation in animal tissues
lactic acid levels and overall morbidity (lactic acid levels): significantly decreases lactic acid levels and overall morbidity in patients with lactic acidosis
blood cholesterol levels (blood cholesterol): markedly decreases blood cholesterol levels
chronic toxicity [4]: reversible peripheral neuropathy, changes in testicular morphology and lenticular opacities
hepatic glucose production [5]: inhibits hepatic glucose production
duration of action (blood lactate decrease) (blood lactate): 18 h
circulating triglyceride and cholesterol concentrations [6]: reduces circulating triglyceride and cholesterol concentrations
blood glucose levels (blood glucose): decrease blood glucose levels in patients with diabetes mellitus
glucose uptake and utilization (peripheral tissues): stimulates glucose uptake and utilization by peripheral tissues
duration of action (serum glucose decrease) (serum glucose): 17 h

O=C(OC1C(OC(=O)C(Cl)Cl)C(OC(=O)C(Cl)Cl)C(OC(=O)C(Cl)Cl)C(OC(=O)C(Cl)Cl)C1OC(=O)C(Cl)Cl)C(Cl)Cl (stereo not shown) [Derivative 3, inositol hexadichloroacetate]
potency relative to DCA (blood lactate) (blood lactate; FIG. 2, dose equivalent to 100 mg/kg DCA): less potent than DCA
duration of action (blood lactate decrease) (blood lactate): 8 h
duration of action (serum glucose decrease) (serum glucose): 6 h

— US4801597A, “Certain inositol-nicotinate ester derivatives and polyionic complexes therefore useful for treating diabetes meuitus, hyperlipidemia and lactic acidosis” (University of Florida, priority 1985, dated 1989)
